Common to all, as to type: cell-based
The target of test [1] is T1, 168 GPCRs (Homo sapiens, UniProt P08173).
T1 construct: host or cells: PathHunter cell lines
T1 sequence (P08173 1-479): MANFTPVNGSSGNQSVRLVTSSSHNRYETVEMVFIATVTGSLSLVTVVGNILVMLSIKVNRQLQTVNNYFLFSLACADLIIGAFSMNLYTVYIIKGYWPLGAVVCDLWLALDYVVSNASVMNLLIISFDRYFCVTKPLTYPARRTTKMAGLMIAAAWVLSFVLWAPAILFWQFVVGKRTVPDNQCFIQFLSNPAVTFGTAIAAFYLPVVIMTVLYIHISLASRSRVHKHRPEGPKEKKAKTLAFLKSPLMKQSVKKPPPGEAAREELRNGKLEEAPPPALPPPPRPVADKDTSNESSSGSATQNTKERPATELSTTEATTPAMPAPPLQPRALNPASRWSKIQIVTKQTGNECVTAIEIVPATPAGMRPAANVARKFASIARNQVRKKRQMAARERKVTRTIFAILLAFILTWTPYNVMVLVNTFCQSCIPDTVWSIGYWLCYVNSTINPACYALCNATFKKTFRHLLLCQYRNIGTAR

Test [2] addresses T2, 168 GPCRs (Homo sapiens, UniProt P08913).
T2 construct: host or cells: PathHunter cell lines
T2 sequence (P08913 1-465): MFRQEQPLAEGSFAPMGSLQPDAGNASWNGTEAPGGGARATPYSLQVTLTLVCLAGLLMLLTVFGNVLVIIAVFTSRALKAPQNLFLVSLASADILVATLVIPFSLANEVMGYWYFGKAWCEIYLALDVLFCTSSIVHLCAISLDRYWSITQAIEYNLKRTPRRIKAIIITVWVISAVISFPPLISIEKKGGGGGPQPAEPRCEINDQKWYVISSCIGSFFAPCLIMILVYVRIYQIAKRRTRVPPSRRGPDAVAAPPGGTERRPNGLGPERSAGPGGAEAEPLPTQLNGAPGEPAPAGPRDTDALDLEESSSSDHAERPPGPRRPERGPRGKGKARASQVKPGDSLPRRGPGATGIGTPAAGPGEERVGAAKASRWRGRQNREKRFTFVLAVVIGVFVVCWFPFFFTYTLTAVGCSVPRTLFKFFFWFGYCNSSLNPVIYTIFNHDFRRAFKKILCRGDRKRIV
The conditions noted are these: ADRA2A.

Test [3] addresses T3, 168 GPCRs (Homo sapiens, UniProt P25090).
T3 construct: host or cells: PathHunter cell lines
T3 sequence (P25090 1-351): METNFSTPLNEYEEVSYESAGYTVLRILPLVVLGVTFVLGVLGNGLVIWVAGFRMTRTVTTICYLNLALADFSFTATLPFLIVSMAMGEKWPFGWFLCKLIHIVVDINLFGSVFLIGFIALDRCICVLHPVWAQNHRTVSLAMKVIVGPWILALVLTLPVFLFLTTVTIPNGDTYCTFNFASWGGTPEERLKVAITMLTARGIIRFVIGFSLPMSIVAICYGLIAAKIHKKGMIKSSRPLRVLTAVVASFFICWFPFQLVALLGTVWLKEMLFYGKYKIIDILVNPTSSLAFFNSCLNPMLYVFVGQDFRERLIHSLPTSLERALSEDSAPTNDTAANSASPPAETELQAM

Test [4] addresses T4, 168 GPCRs (Homo sapiens, UniProt P30550).
T4 construct: host or cells: PathHunter cell lines
The following applies: GRPR.

For test [5], the target named is T5, 168 GPCRs (Homo sapiens, UniProt Q9NSD7).
T5 construct: host or cells: PathHunter cell lines
T5 sequence (Q9NSD7 1-469): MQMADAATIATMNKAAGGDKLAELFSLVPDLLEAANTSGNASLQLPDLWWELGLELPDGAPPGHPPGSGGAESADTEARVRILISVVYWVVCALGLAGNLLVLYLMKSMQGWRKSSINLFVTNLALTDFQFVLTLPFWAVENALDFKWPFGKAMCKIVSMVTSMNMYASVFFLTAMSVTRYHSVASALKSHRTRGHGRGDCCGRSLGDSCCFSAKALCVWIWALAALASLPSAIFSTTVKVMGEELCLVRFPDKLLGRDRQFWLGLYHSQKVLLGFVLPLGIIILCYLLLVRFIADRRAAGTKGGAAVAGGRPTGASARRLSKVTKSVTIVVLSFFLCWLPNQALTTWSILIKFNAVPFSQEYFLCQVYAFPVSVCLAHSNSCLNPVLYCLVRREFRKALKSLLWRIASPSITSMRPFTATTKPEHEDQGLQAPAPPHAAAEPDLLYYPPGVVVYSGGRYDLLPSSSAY
The following applies: RXFP3.

Where two headings read alike, the source gives them in different places.

T4 sequence (P30550 whole entry): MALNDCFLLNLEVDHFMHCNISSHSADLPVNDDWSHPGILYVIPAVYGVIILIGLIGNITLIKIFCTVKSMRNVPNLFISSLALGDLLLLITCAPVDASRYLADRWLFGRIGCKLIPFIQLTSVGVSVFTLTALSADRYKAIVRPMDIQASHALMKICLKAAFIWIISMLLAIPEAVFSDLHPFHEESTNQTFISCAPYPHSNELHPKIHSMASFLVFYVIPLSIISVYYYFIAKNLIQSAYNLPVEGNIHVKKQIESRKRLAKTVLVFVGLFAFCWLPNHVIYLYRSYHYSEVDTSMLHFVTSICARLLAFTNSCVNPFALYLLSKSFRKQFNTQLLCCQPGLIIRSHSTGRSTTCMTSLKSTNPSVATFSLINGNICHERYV

For `CNC(C)C(=O)c1ccc2c(c1)OCO2` (stereo not shown) [methylone], the “% Agonist Activity” value on 168 GPCRs [1] (CHRM4, 1 uM) is recorded as -5.8%; on 168 GPCRs [1] (CHRM4, 10 uM), -6.2%; on 168 GPCRs [2] (1 uM), -3.8%; at 168 GPCRs [2] (10 uM), -3.8%; at 168 GPCRs [3] (FPRL1, 1 uM) it was -0.5%; at 168 GPCRs [3] (FPRL1, 10 uM), 0.1%. The “% Agonist Activity” value is reported as 0% at 168 GPCRs [4] (1 uM), -0.1% at 168 GPCRs [4] (10 uM), -7.6% on 168 GPCRs [5] (Conc 1 uM) and -8.7% on 168 GPCRs [5] (Conc 10 uM). Also, the “% Antagonist Activity” value is 10.2% at 168 GPCRs [1] (CHRM4, 1 uM); 6.7% on 168 GPCRs [1] (CHRM4, 10 uM); -4.6% at 168 GPCRs [2] (1 uM); 1.9% at 168 GPCRs [2] (10 uM); 12.3% at 168 GPCRs [3] (FPRL1, 1 uM); 3.9% on 168 GPCRs [3] (FPRL1, 10 uM). Also, the “% Antagonist Activity” value is 0.7% at 168 GPCRs [4] (1 uM), -1.4% at 168 GPCRs [4] (10 uM), 23.1% on 168 GPCRs [5] (Conc 1 uM) and 32.6% on 168 GPCRs [5] (Conc 10 uM).

For the compound `CNC(C)Cc1ccc2c(c1)OCO2` (stereo not shown) [MDMA, 3,4-Methylenedioxy methamphetamine, reference compound], the “% Agonist Activity” value is on record as -1.8% at 168 GPCRs [1] (CHRM4, 1 uM); -3.2% at 168 GPCRs [1] (CHRM4, 10 uM); 7% at 168 GPCRs [2] (1 uM); 6.5% at 168 GPCRs [2] (10 uM); -0.1% at 168 GPCRs [3] (FPRL1, 1 uM); -0.1% on 168 GPCRs [3] (FPRL1, 10 uM). In addition, the “% Agonist Activity” value was -0.3% at 168 GPCRs [4] (1 uM), -0.6% on 168 GPCRs [4] (10 uM), -5.2% on 168 GPCRs [5] (Conc 1 uM) and -0.7% at 168 GPCRs [5] (Conc 10 uM). Also, the “% Antagonist Activity” value is 32.8% on 168 GPCRs [1] (CHRM4, 1 uM); 26.3% on 168 GPCRs [1] (CHRM4, 10 uM); -5% on 168 GPCRs [2] (1 uM); -13.9% at 168 GPCRs [2] (10 uM); 14.8% on 168 GPCRs [3] (FPRL1, 1 uM); 16.7% at 168 GPCRs [3] (FPRL1, 10 uM). Also, the “% Antagonist Activity” value at 168 GPCRs [4] (1 uM) was found to be 1.9%; on 168 GPCRs [4] (10 uM) it was 1.8%; at 168 GPCRs [5] (Conc 1 uM), 15.3%; on 168 GPCRs [5] (Conc 10 uM), 19.1%.

For the origin of these results see paper PMC10882719 (Frontiers in Neuroscience, 2024).
